Laboratory results: patent US20240024216A1, “METHODS AND MATERIALS FOR TREATING HAIR LOSS” (The Penn State Research Foundation, priority 2021, published 2024)

Columns and labels:
[1] = tested on: C57BL/6 mice; assay: Full thickness excisional splinted wound model: wound closure and histomorphometry; assay type: in vivo; conditions: for wound closure: daily systemic 4-AP
Text: The effect of 4-AP in promoting cutaneous wound healing and tissue regeneration was investigated using a full thickness excisional wound model (FIG. 3A). Excisional wounds (5 mm) were splinted with silicone rings to prevent wound contraction, in 10-wk-old male C57BL/6 mice, which were then randomized and treated with either saline or systemic 4-AP (dosage to correspond to human dosage) daily for 14 days. Wounds were monitored by digital imaging for morphometry, percentage of wound healing, and tissue regeneration on days 3, 5, 7, 9, 12 and 14 post wound (PWD) (when tissue was harvested).
Male C57BL/6 (10 week) mice were purchased from the Jackson Laboratory (Bar Harbor, ME USA). Mice were anesthetized by intraperitoneal injection of ketamine (60 mg/kg) and xylazine (4 mg/kg) body weight, and the dorsal skin hair was removed using mechanical shaver and then, applied the hair removal cream. Skin was disinfected using 70% ethanol and betadine for 3 times. The dorsal skin was folded and raised cranially and caudally at midline using index fingers and thumbs, and place the animal in a lateral position and two 5-mm wounds created in their dorsal skin using sterile biopsy punch. A 5-mm-diameter silicone ring was then placed and sutured around the each wound to restrict contraction. After wound creation and sutured silicone ring, wound site was photographed, and wound surface was covered with a Tegaderm (3M) sterile transparent dressing. After surgery, mice was administered SR Buprenorphine (0.05 mg/kg) as a post-operative analgesia. The mice were randomized into the following two groups: a control group (vehicle control), which received 100 μl of saline, and a 4-AP group. In total […]/mouse/daily 4-AP in 90-110 μl of saline intraperitoneally (IP) was administered until day 14 post wound. Digital imaging of the wound was used was determined for each wound healing by quantification of wound area based on digital pictures taken from day 0 to day 14 (days 0, 3, 5, 7, 9, 12 and 14) post-surgery (FIG. 3A). Wound areas were measured in pixel using ImageJ-1.53e software (National Institutes of Health, USA) and normalized/corrected each wound area with reference scale and wound healing expressed as percentage with respect to day 0 wound, using following formula.
At the day 14 wound skin sample were collected after mice were euthanized using CO2 and skin samples were excised, either flash frozen or fixed in a buffered 4% formaldehyde solution at 4° C., overnight for samples to be embedded in paraffin and the wound skin paraffin blocks were processed into serially cut into […] sections on a Microtome (Leica RM2235, Germany). The wound skin sections were used for morphometric analysis and immunofluorescence staining. […] sectioned wound skin samples of day 14 were sections were deparaffinised using xylene and ethyl alcohol and stained with hematoxylin and eosin (H&E). To evaluate the epidermis thickness, and wound induced hair follicle formation, four randomly fields of each H&E-stained sections were imaged under a light microscope (Olympus BX53, Olympus, Tokyo, Japan) at 1000 magnification. The values of each mice were averaged, and then groups were compared. To measure the wound induced hair follicles, similar to above procedure, the number of hair follicles at dermis were counted and then average value calculated for each group. To understand the collagen formation, maturation and deposition Masson's trichome analysis were performed as per manufacture instructions (Sigma-Aldrich, Catalog No.: HT15-1KT).

[2] = tested on: keratinocytes co-cultured with fibroblasts (10:1); assay: Co-culture scratch assay, keratinocytes with fibroblasts; assay type: cell-based, human; conditions: measured at 15 hours; 72% in non-treated
Method: To determine the influence of Schwann cells and fibroblast on keratinocytes migration and proliferation wound healing scratch assay was conducted. The co-culture experiment performed in Keratinocytes to either Schwann cells or fibroblasts in a ratio of 10:1 with same proposition of their respective medium were seeded on 96-well ImageLock microplate for 6 hours and the wells were pre-coated with collagen-I plate. For the drug treatment cells were pretreated with 4-AP prior to coating for 16-18 hours. Next, the wound scratch was created and treated cells with and without 4-AP in medium. Imaged for every hour until 24 hour and analyzed for percent of closure as described above procedure.

[3] = tested on: human foreskin dermal primary fibroblast; assay: Scratch wound healing migration assay, primary dermal fibroblasts; assay type: cell-based
[4] = tested on: human foreskin primary keratinocytes; assay: Scratch wound healing migration assay, primary keratinocytes; assay type: cell-based
Method: Keratinocytes isolation, culture conditions and characterization—The isolated epidermis was placed in a petri dish containing HEPES buffer for 10 minutes at room temperature, then treated with trypsin at 37° C. until the epidermis became loose and medium cloudy due to keratinocytes release. The cloudy medium was collected and trypsin activity neutralized using fetal bovine serum (FBS) in 1:1 ratio. The epidermis suspended keratinocytes were centrifuges at 1500 rpm for 5 minutes. The pellet resuspended in KGM-GOLD keratinocytes medium (Lonza KGM gold and supplements, Catlog No. 00192151 and 00192152). The isolated foreskin cultured on a culture dish and placed at 37° C. in 5% CO2 incubator for 1-2 days to allow keratinocytes to adhere. Adhere keratinocytes were continued incubation in KGM-Gold medium until cells reach about 80% confluent.
Keratinocytes/Schwann cells/fibroblasts (7×10^4 cells/well keratinocytes and 3.5×10^4 cells/well of SCs and FBs) with their respective medium were seeded on pre-coated either with collagen-I/PLL/no 96-well ImageLock microplate for 6 hours (Incucyte-sartorius plate, Cat log 4379). For the drug treatment cells were pretreated with 4-AP prior to coating for 16-18 hours. Next, the wound scratch was created using IncuCyte automated system (Essen BioScience). After scratches the cells washed with PBS and the respective cells medium was added with or without 1 mM of 4-AP. The plate was incubated in Incucyte automated imaging system, wound healing and cells migration was monitored by time-lapse photography capturing every hour from 0 to 42 hours. The relative area of wound size and cells migration at each time point was analyzed using IncuCyte™ Scratch Wound Cell Migration Software Module (Essen BioScience) and the percent of wound healing was calculated from the area measured after scratching relative to the basal area as expressed in pixels.
Indirect immunofluorescence was used to identify, characterize and to analyze the proliferation after 4-AP treatment. […]

In the case of `Nc1ccncc1` [4-AP, 4-aminopyridine], the re-epithelialization of wound ([1]; by day 14) is reported as “completely re-epithelialized”, the wound closure ([1]; day 3 post wound) is reported as 22.35±0.30% and the “collagen deposition in dermis (Masson's Trichrome)” value ([1]; day 14, compared to saline) is reported as “elevated collagen deposition”. For the same compound, the “fold increase in WIHN” value ([1]; day 14, vs saline-treated mice) was 1.8 fold, the wound closure ([1]; day 14 post wound) was 98.24±0.10% and the thickness of newly formed epidermis (H&E) ([1]; day 14 wound tissue) was 29.7 ± 1.3 µm. For the same compound, the “mean number of hair follicles (wound-induced hair neogenesis)” value ([1]; day 14 wound tissue, H&E) was 45, the scratch closure [2] was 93% and the fibroblast migration ([3]; 1 mM 4-AP vs no treatment) was “unaffected”. The “vimentin and α-SMA protein expression (fibroblast to myofibroblast conversion)” value ([3]; 4-AP exposed vs no treatment) was “increased”, the “time of complete scratch closure” value ([4]; 1 mM 4-AP, control closed at 32 hours) was 18 h and the “SOX10 and NGF expression in keratinocytes” value ([4]; 4-AP treated vs no treatment) was “both increased”. For the same compound, the “expression of keratins associated with keratinocyte differentiation (K10)” value ([4]; 4-AP treated vs no treatment) was “did not increase”.
